These are literature values, as cited in patent publication EP4640076A1, “ORAL PRODUCT WITH FLAVOR EMULSION” (Nicoventures Trading Limited, priority 2024, dated 2025).

Where two headings read alike, the source gives them in different places.

The conditions of data set [1]: at 25°C; heptanal.

As to `CCCCCCC=O` [heptanal], the logP (heptanal) is given as 2.44. In addition, in data set [1], the vapor pressure is on record as 3.85 mm Hg.

In the case of `Oc1ccc(/C=C/c2cc(O)cc(O)c2)cc1` [Resveratrol, 3,5,4'-trihydroxy-trans-stilbene], the logP (resveratrol) is listed as 3.1.

One may read the logP as a log measure of how a compound divides between an organic and an aqueous phase.
